# Reference: patent US20180116993A1, “MODULATORS OF FARNESOID X RECEPTOR AND METHODS FOR THE USE THEREOF” (XIAMEN UNIVERSITY, priority 2015, published 2018)
# Marks after values point to notes of the source that are not given here.
# Key:
# [1] = tested on: mice with APAP-induced liver injury; assay: Acetaminophen (APAP)-induced liver injury in mouse; assay type: in vivo; conditions: for ALT (U/L): 5 mg/kg i.p. once daily for five days, then APAP 500 mg/kg, 8-week age mice, serum, vehicle 786 ± 111
# Text: Methods: Acetaminophen (APAP)-induced liver injury in mouse is a commonly used model to study drugs protecting liver. Overdose of APAP causes liver injury by inducing the production of reactive oxygen species and reactive nitrogen species, and excessive consumption of reductive substances such as antioxidant glutathione (GSH), leading to the reduction of GSH in vivo, and the following upregulation of the activities of the aspartate aminotransferase (AST), the alanine aminotransferase (ALT) and the lactate dehydrogenase (LDH), which will result in liver inflammation and necrosis. In this example, the APAP-induced liver injury was used to detect the protection and repair functions of our compounds in liver injury.
# One-year or 8-week age mice were maintained under environmentally controlled conditions with free access to standard chow diet and water. Animal experiments were conducted in the barrier facility of the Laboratory Animal Center, Xiamen University, approved by the Institutional Animal Use and Care Committee of Xiamen University, China.
# Compounds were solved with DMSO and then prepared to work concentration with 40% HBC (2-hydroxypropyl-β-cyclodextrin) in which the final work concentrations of compounds are 5 mg/kg body weight, 10 mg/kg or 20 mg/kg in 100 μl injection volume and the concentration of DMSO is 10%. Compounds were intraperitoneal (i.p.) injected once daily for five days. For Feroline and Tschimganine, one-year age mice were used in the experiment. For other compounds, 8-week age mice were used. […] For Tschimganine, 20 mg/kg dose of compound was administered to mice. For other compounds, 5 mg/kg dose of compounds were administered to mice. Six hours after the fifth injection, 500 mg/kg body weight of APAP solved in PBS was i.p. injected to the mice. 24 hours later, mice were sacrificed. Part of each liver was fixed in 4% paraformaldehyde, and the liver histology characterization was analyzed by haematoxylin and eosin (H&E) staining with paraffin-embedded sections by standard procedures. Other liver tissues were collected for detecting the GSH levels, and the mRNA expression of genes involved in liver repairing, such as GPX1 and UGT1a1, by RT-PCR. The serums were collected to measure enzymes activities including AST, ALT and LDH. For the synthetic derivatives, ALT and GSH were selected as indicating markers for the function of these compounds.
# SOD2 = assay: mRNA level of antioxidant gene SOD2 in livers of db/db mice; assay type: in vivo, mouse; conditions: 10 mg/kg, vehicle 1 ± 0.3
# [2] = tested on: inflammatory cytokines in tissues of db/db mice; assay: Inflammatory cytokine mRNA levels in tissues of high-fat diet fed db/db mice (RT-PCR); assay type: in vivo, mouse; conditions: 5 mg/kg; for mRNA level of iNOS (fold), Liver tissue: vehicle 1.06 ± 0.14; for mRNA level of iNOS (fold), Colon tissue: vehicle 1.12 ± 0.23
# Summary of the method: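 Cytokine and marker transcripts (iNOS, IFNγ, TGFβ, TNFα, COX2, IL-1β, IL-6, SAA1, MIP-1α, CD36) quantified by RT-PCR in liver, kidney and white adipose tissue of high-fat diet fed db/db mice.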
# db/db mice = assay: Serum/blood metabolic parameters in high-fat diet fed db/db mice; assay type: in vivo, mouse
# Summary of the method: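 db/db mice aged 8–10 weeks on high-fat diet received compounds i.p. once daily for 7, 10, 11 or 14 days, then were fasted 6 h and sacrificed. Serum glucose (glucose oxidase), insulin (ELISA), cholesterol, FFA and triglycerides measured by kits; some blood glucose by tail strips after the 6th injection and 16 h fast.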
# [3] = tested on: collagen related genes in mice livers; assay: Liver mRNA levels of collagen related genes in mice of Example 5 (RT-PCR); assay type: in vivo, mouse; conditions: 10 mg/kg
# Text: NAFLD with excessive fat accumulation in liver will affect the blood and oxygen supplies to liver and the metabolism of liver organ, resulting in amounts of cell swelling, inflammatory infiltration and necrosis in liver. […] The levels of various collagen contents are higher in patients with liver cirrhosis. Masson's staining is a three-color staining protocol used in histology. It is widely used to study hepatic pathologies (cirrhosis). It's an authoritative and classic method to detect the existence and extend of accumulation of the collagen fiber. Sirius Red staining is also presented as a method for collagen determination. In this example, the Masson's staining and […] were performed to detect the collagen deposit in high fat diet fed db/db mice in Example 5. The Masson's staining kit (Nanjing Jiancheng Engineering Institute, China) was used for the staining of liver sections in Example 5. The Sirius red staining is performed as standard procedure. RT-PCR was used detect the expression of collagen and related genes such as α1(I) collagen, α2(I)collagen, α-SMA and MCP-1 in mice livers.
SMILES,ALT (U/L) [1],mRNA level of SOD2 (fold) (SOD2),"mRNA level of iNOS (fold), Liver tissue [2]","mRNA level of iNOS (fold), Colon tissue [2]","Serum Glucose (mg/dl) (db/db mice; 10 mg/kg, treat for 10 days, vehicle 527 ± 63)","Liver morphology by H&E staining (FIG. 1) ([1]; 10 mg/kg (Tschimganine 20 mg/kg) i.p. five days, then APAP, compared to severe liver injury in control group)","expression levels of GPX1 and UGT1α1 in liver ([1]; mRNA by RT-PCR, vs vehicle control group, Table 5 (not given))","activities of serum AST, ALT and LDH ([1]; vs vehicle control group, Table 5 (not given))",Relative mRNA level of α-SMA ([3]; vehicle 1 ± 0.1),Relative mRNA level of α2(I) collagen ([3]; vehicle 1.1 ± 0.1),Relative mRNA level of α1(I) collagen ([3]; vehicle 1.1 ± 0.2),"Serum Triglyceride (mg/dl) (db/db mice; 10 mg/kg for 11 days, vehicle 96 ± 16)","Serum Cholesterol (mg/dl) (db/db mice; 10 mg/kg for 11 days, vehicle 121 ± 13)","Serum FFA (μM) (db/db mice; 10 mg/kg for 11 days, vehicle 371 ± 27)","Blood Glucose (mg/dl) (db/db mice; 10 mg/kg, 11 days, tail blood after the 6th injection and 16 h fast, vehicle 452 ± 24)"
"Cc1cc(C(=O)OC2CC3CCC2(C)C3(C)C)ccc1N (stereo not drawn) [XD-4, 1,7,7-trimethyl-bicyclo[2.2.1]-heptan-2-yl 4-amino-3-methylbenzoate]",236 ± 65 ^a U/L,1.6 ± 0.1 ^b fold,0.41 ± 0.1^a fold,0.53 ± 0.37^a fold,,,,,,,,,,,
"Nc1ccc(C(=O)OC2CCCCCCC2)cc1 [XD-16, cyclooctyl 4-aminobenzoate]",127 ± 46 ^b U/L,1.5 ± 0.1 ^b fold,0.39 ± 0.18^a fold,0.42 ± 0.22^a fold,404 ± 46^a mg/dl,,,,,,,,,,
"Cc1cc(C(=O)OC2CCCCCCC2)ccc1O [XD-17, cyclooctyl 4-hydroxy-3-methylbenzoate]",117 ± 39 ^c U/L,1.8 ± 0.3 ^a fold,,,,,,,,,,,,,
CC1(C)[C@@H]2CC[C@@]1(C)[C@@H](OC(=O)c1ccc(O)cc1)C2 [Tschimgine],,,,,,almost normal liver morphology,significantly upregulated,dramatically lower,0.47 ± 0.1^a,0.75 ± 0.9^a,0.6 ± 0.13^a,38 ± 8^a mg/dl,96 ± 3^a mg/dl,302 ± 21^a μM,252 ± 54^b mg/dl
